Laboratory results as given in patent US9523100B2, “Pesticidal compositions and related methods” (DOW AGROSCIENCES LLC, priority 2013, dated 2016).
Read-outs that look alike come from different tables or passages of the source.

Columns and labels:
[1] = test system: Green Peach Aphid (GPA) (Myzus persicae) (MYZUPE); assay: Bioassay for Green Peach Aphid (GPA), foliar spray on cabbage seedlings; type: in vivo; details: 72 h, read-out: GPA 200 ppm, % Control (or Mortality) rating
Summary of the method: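 Cabbage seedlings infested with 20-50 GPA (wingless adults and nymphs) one day before spraying to runoff with 200 ppm compound; four pots per treatment. Live aphids counted after three days at ~25° C; percent control by Abbott's correction against solvent-sprayed plants.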

[2] = test system: Sweetpotato Whitefly-Crawler (WF) (Bemisia tabaci) (BEMITA); assay: Insecticidal test for Sweetpotato Whitefly-Crawler (WF) in foliar spray assay on cotton plants; type: in vivo; details: 216 h, read-out: WF 200 ppm, % Control (or Mortality) rating
Summary of the method: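 Cotton plants carrying 200–400 whitefly eggs sprayed to run-off on both leaf surfaces at 200 ppm (acetone/0.025% Tween 20), four plants per treatment. After 9 days at about 25 °C, live 3rd–4th instar nymphs counted; Abbott-corrected percent control versus solvent check.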

[3] = 200 ppm foliar spray on cabbage seedlings, graded after three days, Abbott corrected % control
[4] = 200 ppm foliar spray on cotton plants, graded after 9 days, Abbott corrected % control

Structure (SMILES)	mortality at 200 ppm [1, 3]	mortality at 200 ppm [2, 4]	mortality at 200 ppm ([1]; foliar)	mortality at 200 ppm ([2]; foliar)
CCN(C(=O)C1CCN(C(=O)C(F)(F)F)C1)c1cn(-c2cccnc2)nc1Cl (centres unmarked) [FA9, N-(3-Chloro-1-(pyridin-3-yl)-1H-pyrazol-4-yl)-N-ethyl-1-(2,2,2-trifluoroacetyl)pyrrolidine-3-carboxamide]	80 to 100%	< 0%		
CCN(C(=O)C(C)O)c1cn(-c2cccnc2)nc1Cl (centres unmarked) [Compound C13, N-(3-chloro-1-(pyridin-3-yl)-1H-pyrazol-4-yl)-N-ethyl-2-hydroxypropanamide]	80 to 100%	80 to 100%		
CCN(C(=O)CCn1ccc(/C(C)=N/OC(C)C)n1)c1cn(-c2cccnc2)nc1Cl [FA2, (E/Z)-N-(3-Chloro-1-(pyridin-3-yl)-1H-pyrazol-4-yl)-N-ethyl-3-(3-(1-(isopropoxyimino)ethyl)-1H-pyrazol-1-yl)propanamide]	0 to 80%	80 to 100%		
CCN(C(=O)C(C)C/C=N\OCCC1CC1(F)F)c1cn(-c2cccnc2)nc1Cl (centres unmarked) [FA59, (Z)-N-(3-Chloro-1-(pyridin-3-yl)-1H-pyrazol-4-yl)-4-((2-(2,2-difluorocyclopropyl)ethoxy)imino)-N-ethyl-2-methylbutanamide]	80 to 100%	80 to 100%		
CCN(C(=O)CC/C(=N\OCCCC(F)(F)F)c1cccs1)c1cn(-c2cccnc2)nc1Cl [FA26, (E)-N-(3-Chloro-1-(pyridin-3-yl)-1H-pyrazol-4-yl)-N-ethyl-4-(thiophen-2-yl)-4-((4,4,4-trifluorobutoxy)imino)butanamide]	0 to 80%	80 to 100%		
CCN(C(=O)CCC(=O)NCc1ccncc1)c1cn(-c2cccnc2)nc1Cl [Compound F115, N1-(3-Chloro-1-(pyridin-3-yl)-1H-pyrazol-4-yl)-N1-ethyl-N4-(pyridin-4-ylmethyl)succinamide]	0 to 80%	80 to 100%		
CCN(C(=O)CN(C)C(=O)OC(C)(C)C)c1cn(-c2cccnc2)nc1Cl [Compound F4, tert-Butyl (2-((3-chloro-1-(pyridin-3-yl)-1H-pyrazol-4-yl)(ethyl)amino)-2-oxoethyl)(methyl)carbamate]			80 to 100%	80 to 100%
CCN(C(=O)CCn1ccc(/C(C)=N/OC)n1)c1cn(-c2cccnc2)nc1Cl [FA1, (E/Z)-N-(3-Chloro-1-(pyridin-3-yl)-1H-pyrazol-4-yl)-N-ethyl-3-(3-(1-(methoxyimino)ethyl)-1H-pyrazol-1-yl)propanamide]	0 to 80%	80 to 100%		
CCN1CC(CCC(=O)N(CC)c2cn(-c3cccnc3)nc2Cl)C1=O (centres unmarked) [Compound F103, N-(3-Chloro-1-(pyridin-3-yl)-1H-pyrazol-4-yl)-N-ethyl-3-(1-ethyl-2-oxoazetidin-3-yl)propanamide]	80 to 100%	80 to 100%		
CCN(C(=O)CC/C(C)=N/OCc1ccc(OC(F)(F)F)cc1)c1cn(-c2cccnc2)nc1Cl [FA40, (E/Z)-N-(3-Chloro-1-(pyridin-3-yl)-1H-pyrazol-4-yl)-N-ethyl-4-(((4-(trifluoromethoxy)benzyl)oxy)imino)pentanamide]	0 to 80%	80 to 100%		
CN(C(=O)CCC(=O)N1CCCCC1)c1cn(-c2cccnc2)nc1Cl [Compound F33, N-(3-Chloro-1-(pyridin-3-yl)-1H-pyrazol-4-yl)-N-methyl-4-oxo-4-(piperidin-1-yl)butanamide]	0 to 80%	80 to 100%		
CCN(C(=O)CCNC(=O)C1CC1(F)F)c1cn(-c2cccnc2)nc1Cl (centres unmarked) [Compound F56, N-(3-((3-Chloro-1-(pyridin-3-yl)-1H-pyrazol-4-yl)(ethyl)amino)-3-oxopropyl)-2,2-difluorocyclopropanecarboxamide]	80 to 100%	80 to 100%		
CCN(C(=O)CC(C)=O)c1cn(-c2cccnc2)nc1Cl [FA66, N-(3-chloro-1-(pyridin-3-yl)-1H-pyrazol-4-yl)-N-ethyl-3-oxobutanamide]	80 to 100%	80 to 100%		
CCN(C(=O)CCN(CC(F)F)C(=O)n1ccnc1)c1cn(-c2cccnc2)nc1Cl [Compound F17, N-(3-((3-chloro-1-(pyridin-3-yl)-1H-pyrazol-4-yl)(ethyl)amino)-3-oxopropyl)-N-(2,2-difluoroethyl)-1H-imidazole-1-carboxamide]			0 to 80%	80 to 100%
CCN(C(=O)CCC1CN(Cc2ccc(C(F)(F)F)cc2)C1=O)c1cn(-c2cccnc2)nc1Cl (centres unmarked) [Compound F129]	0 to 80%	80 to 100%		
CCN(C(=O)CCC(=O)NCC(F)(F)F)c1cn(-c2cccnc2)nc1Cl [Compound F67, N1-(3-Chloro-1-(pyridin-3-yl)-1H-pyrazol-4-yl)-N1-ethyl-N4-(2,2,2-trifluoroethyl)succinamide]	80 to 100%	80 to 100%		

Structure (SMILES)	mortality at 200 ppm [1, 3]	mortality at 200 ppm [2, 4]	mortality at 200 ppm ([1]; foliar)	mortality at 200 ppm ([2]; foliar)
CCN(C(=O)CCC1CNC1=O)c1cn(-c2cccnc2)nc1Cl (centres unmarked) [Compound F50]	0 to 80%	80 to 100%		
CCN(C(=O)CCCC(C)=O)c1cn(-c2cncc(F)c2)nc1C [FA70, N-Ethyl-N-(1-(5-fluoropyridin-3-yl)-3-methyl-1H-pyrazol-4-yl)-5-oxohexanamide]	0 to 80%	80 to 100%		
CCN(C(=O)CC/C(C)=N/OCCCC(F)(F)F)c1cn(-c2cccnc2)nc1Cl [FA19, (E/Z)-N-(3-Chloro-1-(pyridin-3-yl)-1H-pyrazol-4-yl)-N-ethyl-4-((4,4,4-trifluorobutoxy)imino) pentanamide]	0 to 80%	80 to 100%		
CCN(C(=O)CC/C(C)=N/Oc1cc(C(F)(F)F)ccn1)c1cn(-c2cccnc2)nc1Cl [Compound F36, (E/Z)-N-(3-Chloro-1-(pyridin-3-yl)-1H-pyrazol-4-yl)-N-ethyl-4-(((4-(trifluoromethyl)pyridin-2-yl)oxy)imino)pentanamide]	80 to 100%	80 to 100%		
CCN(C(=O)CCN(C)C(=O)CCC(F)(F)F)c1cn(-c2cccnc2)nc1Cl [Compound F94, N-(3-((3-Chloro-1-(pyridin-3-yl)-1H-pyrazol-4-yl)(ethyl)amino)-3-oxopropyl)-4,4,4-trifluoro-N-methylbutanamide]	80 to 100%	80 to 100%		
CCN(C(=O)CNC(=O)OC(C)(C)C)c1cn(-c2cccnc2)nc1Cl [Compound F2, tert-Butyl (2-((3-chloro-1-(pyridin-3-yl)-1H-pyrazol-4-yl)(ethyl)amino)-2-oxoethyl)carbamate]	80 to 100%	80 to 100%		
CCN(C(=O)CCCC1CN(Cc2ccc(C(F)(F)F)cc2)C1=O)c1cn(-c2cccnc2)nc1Cl (centres unmarked) [Compound F127, N-(3-Chloro-1-(pyridin-3-yl)-1H-pyrazol-4-yl)-N-ethyl-4-(2-oxo-1-(4-(trifluoromethyl)benzyl)azetidin-3-yl)butanamide]	0 to 80%	80 to 100%		
CCN(C(=O)CCNC)c1cn(-c2cccnc2)nc1Cl [Compound C11, N-(3-chloro-1-(pyridin-3-yl)-1H-pyrazol-4-yl)-N-ethyl-3-(methylamino)propanamide]	0 to 80%	80 to 100%		
CCN(C(=O)C1CCN(C(=O)CC(F)(F)F)CC1)c1cn(-c2cccnc2)nc1Cl [Compound P16, N-(3-chloro-1-(pyridin-3-yl)-1H-pyrazol-4-yl)-N-ethyl-1-(3,3,3-trifluoropropanoyl) piperidine-4-carboxamide]	80 to 100%	0 to 80%		
CCN(C(=O)CCNC(=O)CC(C)C(F)(F)F)c1cn(-c2cccnc2)nc1Cl (centres unmarked) [Compound F28, N-(3-((3-Chloro-1-(pyridin-3-yl)-1H-pyrazol-4-yl)(ethyl)amino)-3-oxopropyl)-4,4,4-trifluoro-3-methylbutanamide]	80 to 100%	80 to 100%		
CCN(C(=O)CCNC(=O)CCC(F)(F)F)c1cn(-c2cccnc2)nc1Cl [Compound F12, N-(3-((3-Chloro-1-(pyridin-3-yl)-1H-pyrazol-4-yl)(ethyl)amino)-3-oxopropyl)-4,4,4-trifluorobutanamide]	80 to 100%	80 to 100%		
CN(C(=O)CN1CCCC1=O)c1cn(-c2cccnc2)nc1Cl [Compound F6, N-(3-Chloro-1-(pyridin-3-yl)-1H-pyrazol-4-yl)-N-methyl-2-(2-oxopyrrolidin-1-yl)acetamide]	80 to 100%	80 to 100%		
O=C1CCCN1CC(=O)N(CC1CC1)c1cn(-c2cccnc2)nc1Cl [Compound F98, N-(3-chloro-1-(pyridin-3-yl)-1H-pyrazol-4-yl)-N-(cyclopropylmethyl)-2-(2-oxopyrrolidin-1-yl)acetamide]	80 to 100%	80 to 100%		
CCN(C(=O)CCC(C)=NOC)c1cn(-c2cccnc2)nc1Cl (mixture of isomers) [Compound F92, (E/Z)-N-(3-chloro-1-(pyridin-3-yl)-1H-pyrazol-4-yl)-N-ethyl-4-(methoxyimino) pentanamide]	80 to 100%	80 to 100%		
CCN(C(=O)CCN(C)C(=O)N(C)C)c1cn(-c2cccnc2)nc1Cl [Compound F121, N-(3-Chloro-1-(pyridin-3-yl)-1H-pyrazol-4-yl)-N-ethyl-3-(1,3,3-trimethylureido)propanamide]	80 to 100%	80 to 100%		
